# Where two headings read alike, the source gives them in different places.
# Experiments:
# [1] = system: factor 3 of the complement (C3) production in T98G cell line; assay: Complement factor C3 secretion in the T98G cell line; type: cell-based, human; conditions: for reducing secretion of factors of the complement (in words): T98G cells
# Procedure: The effect of paracetamol on the production of complement factors has been studied using the human glioblastoma T98G cell line. The said line is in fact capable of constitutively producing factor 3 of the complement (C3) and this synthesis is further increased in the presence of various stimuli such as interleukin-1 beta (IL-1β). Indomethacin has been used as the reference drug.
# (§1) The cells (2×10^6 /ml) were incubated for 48 hours in the presence of increasing concentrations of paracetamol (10-100-500-1000 μM) or indomethacin (0, 1-1-10 μM) both in the presence and in the absence of IL-1β (50 U/ml). On completion of incubation, the culture medium was harvested and the quantity of C3 secreted by the cells in the various conditions was measured. C3 was assayed in a sandwich-type immunoenzymatic test, in which two anti-C3 antibodies of different species were used as well as an antiserum labeled with an alkaline phosphatase specific for one of the two anti-C3 antibodies. The secreted C3 was quantified using a standard curve prepared on the basis of purified C3.
# [2] = system: interleukin-6 (IL-6) production in T98G cell line; assay: IL-6 production in the T98G cell line stimulated with β-amyloid; type: cell-based, human
# Procedure: The effect of paracetamol on the production of IL-6 was studied using the human cell line glioblastoma T98G. The said line is in fact capable of constitutively producing IL-6 and this synthesis is augmented in the presence of aggregated β-amyloid. Indomethacin was used as the reference drug.
# The cells (2×10^6 /ml) were incubated for 48 hours in the presence of increasing concentrations of paracetamol (10-1000 μM) or indomethacin (0.1-10 μM) in the presence of β-amyloid (50 μM) aggregated by incubation at 37° C. for 6 days. At the end of the experiment the culture medium was harvested and the quantity of IL-6 produced in the various conditions was assayed using a commercial immunoenzymatic kit (Biotrak IL-6, Amersham, UK).
# [3] = system: E2 prostaglandins production in T98G cell line; assay: Prostaglandin E2 production in the T98G cell line stimulated with IL-1β; type: cell-based, human; conditions: IL-1β stimulated
# Procedure: as §1
# (§2) Parallel experiments were conducted in which the ability of paracetamol and indomethacin to inhibit the production of prostaglandins produced by the glioblastoma T98G cell line or by the J774.2 cellular macrophagic cell line was assessed.
# The test with T98G cells stimulated with IL-1β was conducted as described in the previous Example 1. At the end of incubation the culture medium was harvested and the quantity of E2 prostaglandins present was measured. The prostaglandins were assayed by means of a commercially available immunoenzymatic test ([…]).
# [4] = system: prostaglandin E2 production in J774.2 macrophagic cells; assay: Prostaglandin E2 production in the J774.2 macrophagic cell line stimulated with LPS; type: cell-based
# Procedure: as §2
# Parallel to the above experiment, J774.2 (2×10^6 /ml) macrophagic cells were stimulated with lipopolysaccharide (LPS) (1 μg/ml) for 12 hours. After 3 washes with physiological solution, the cells were incubated for 45 minutes together with increasing concentrations of paracetamol (0.1-100 μM) or indomethacin (0.01-1 μM). At the end of incubation the supernatants were harvested and the prostaglandin E2 content was measured using the previously described test.
# T98G cell line = assay: Toxicity in the T98G cellular system; type: cell-based, human; conditions: concentration above 10 μM not possible
# [5] = system: patients suffering from Alzheimer's disease; conditions: 44 patients, 6 months, in comparison with placebo; cited from earlier work
# [6] = system: T98G and J774.2 cell lines; assay: Selectivity of action on the nervous system (Tables 1 to 4 as a whole); type: cell-based; conditions: contrary to indomethacin
# Procedure: as §2
# [7] = cited from earlier work
# [8] = system: onset of the Alzheimer disease; conditions: retrospective, subjects treated for pain and fever; cited from earlier work
# [9] = low therapeutic doses from 0.5 to 1 g, 3 or 4 times a day; cited from earlier work
# peripheral cycloxygenase = conditions: cited from earlier work
# [10] = Homo sapiens, T98G, 48 h, read-out: Inhibition % of production of complement (C3)
# [11] = Homo sapiens, T98G, 48 h, read-out: Inhibition % of production of IL-6
# [12] = Mus musculus, J774.2, 0.75 h, read-out: Inhibition % of production of prostaglandins
# [13] = Homo sapiens, T98G, 48 h, IL-1β stimulated (50 U/ml)
# [14] = Homo sapiens, T98G, 48 h, not stimulated with IL-1β
smiles,measurement,setting,value
COc1ccc2c(c1)c(CC(=O)O)c(C)n2C(=O)c1ccc(Cl)cc1 [Indomethacin],inhibition at 0.1 µM,[1]; [10],26.9%
same,inhibition at 1 µM,[1]; [10],21.7%
same,inhibition at 10 µM,[1]; [10],35.1%
same,inhibition at 10 µM,"[1]; Homo sapiens, T98G, read-out: inhibiting activity on secretion of the complement",35%
same,reducing secretion of factors of the complement (in words),[1],active in reducing the secretion of the complement
same,reducing secretion of factors of the complement (in words),[1]; listed as indomethacin,capable of reducing secretion of factors of the complement
same,inhibition at 0.1 µM,[2]; [11],21.1%
same,inhibition at 1 µM,[2]; [11],17.6%
same,inhibition at 10 µM,[2]; [11],11.5%
same,inhibition at 0.1 µM,"[3]; Homo sapiens, 0.1 μM",99.3%
same,inhibition at 1 µM,"[3]; Homo sapiens, 1 μM",98.4%
same,inhibition at 10 µM,[3]; Homo sapiens,99.1%
same,inhibiting production of prostaglandins in glial cells (in words),[3],capable of inhibiting production of prostaglandins in the glial cells of the central nervous system in a significant manner
same,inhibition at 0.01 µM,[4]; [12],35.8%
same,inhibition at 0.1 µM,[4]; [12],61.1%
same,inhibition at 1 µM,[4]; [12],87.4%
same,toxicity in the cellular system used,T98G cell line,"because of its toxicity in the cellular system used, it was not possible to increase its concentration above 10 μM"
same,progression of dementia,[5],notable slowing of the progression of dementia
"CC(=O)Nc1ccc(O)cc1 [Paracetamol, N-acetyl-p-aminophenol]",inhibition at 100 µM,"[1]; Homo sapiens, T98G, 48 h, IL-1β stimulated (50 U/ml), 100 μM",23.6%
same,inhibition at 500 µM,[1]; [13],39.8%
same,inhibition at 1000 µM,[1]; [13],47.5%
same,inhibition at 10 µM,"[1]; Homo sapiens, T98G, 48 h, IL-1β stimulated (50 U/ml), 48 hours, 10 μM, read-out: Inhibition % of production of complement (C3)",0.1%
same,inhibition at 500 µM,[1]; [14],37.4%
same,inhibition at 1000 µM,[1]; [14],60.8%
same,IC50,"[1]; Homo sapiens, T98G, cells stimulated with interleukin-1 beta, read-out: Cl50 for secretion of C3",~1000 µM
same,reducing secretion of factors of the complement (in words),[1],capable of reducing secretion of factors of the complement
same,inhibition at 10 µM,"[2]; Homo sapiens, T98G, β-amyloid stimulated (50 μM), 48 hours, 10 μM, read-out: Inhibition % of production of IL-6",11.4%
same,inhibition at 100 µM,"[2]; Homo sapiens, T98G, β-amyloid stimulated (50 μM), 48 hours, 100 μM",6.7%
same,inhibition at 500 µM,"[2]; Homo sapiens, T98G, β-amyloid stimulated (50 μM), 48 hours, 500 μM",20.5%
same,inhibition at 1000 µM,"[2]; Homo sapiens, T98G, β-amyloid stimulated (50 μM), 48 hours, 1000 μM",41.2%
same,IC50,"[2]; Homo sapiens, T98G, β-amyloid stimulated, read-out: Cl50 for production of IL-6",> 1000 µM
same,reducing the secretion of IL-6 (in words),[2]; in the presence of β-amyloid,capable of reducing the secretion of IL-6
same,inhibition at 10 µM,[3]; Homo sapiens,26.7%
same,inhibition at 100 µM,"[3]; Homo sapiens, 100 μM",88.5%
same,inhibition at 500 µM,"[3]; Homo sapiens, 500 μM",96.9%
same,inhibition at 1000 µM,"[3]; Homo sapiens, 1000 μM",99%
same,inhibiting production of prostaglandins in glial cells (in words),[3],capable of inhibiting production of prostaglandins in the glial cells of the central nervous system in a significant manner
same,inhibiting activity on production of prostaglandins in macrophages (in words),"[4]; J774.2, LPS stimulated",little inhibiting activity on production of prostaglandins in macrophages
same,inhibition at 0.1 µM,"[4]; Mus musculus, 0.75 h, J774.2, LPS stimulated (1 μg/ml), 45 minutes, 0.1 μM, read-out: Inhibition % of production of prostaglandins",5.3%
same,inhibition at 1 µM,"[4]; Mus musculus, 0.75 h, J774.2, LPS stimulated (1 μg/ml), 45 minutes, 1 μM, read-out: Inhibition % of production of prostaglandins",6.4%
same,inhibition at 10 µM,"[4]; Mus musculus, 0.75 h, J774.2, LPS stimulated (1 μg/ml), 45 minutes, 10 μM, read-out: Inhibition % of production of prostaglandins",12.5%
same,inhibition at 100 µM,"[4]; Mus musculus, 0.75 h, J774.2, LPS stimulated (1 μg/ml), 45 minutes, 100 μM, read-out: Inhibition % of production of prostaglandins",11.4%
same,selectivity of action on the nervous system,[6],peculiar selectivity of action on the nervous system
same,plasma concentration,"[7]; after 6 hours, oral administration of 1 g",approximately 1.5 mg/l
same,tissue distribution,"[7]; in words, including the brain","distributed evenly throughout the major part of the tissues of the organism, including the brain"
same,absorption,[7]; in words,rapidly absorbed
same,tissue concentration relative to plasma,[7]; oral administration,substantially the same as the plasma concentration
same,plasma concentration,[7]; within a few minutes of oral administration of 1 g,approximately 10 mg/l
same,concentration,"[7]; within a few minutes of oral administration of 1 g, read-out: plasma concentration",~66.2 µM
same,delay in the onset of the Alzheimer disease,[8],negative
same,side effects,[9],no significant side effects
same,tolerability,[9],well tolerated
same,action on peripheral cycloxygenase,peripheral cycloxygenase,absence of action on peripheral cycloxygenase
